Where two headings read alike, the source gives them in different places.
Legend:
C57BL/6 mice [1] = assay: Preliminary in vivo toxicity, daily s.c. dosing for 16 days; design: species or system mouse; details: s.c. daily for 16 days, doses up to at least 10 mg/kg per day
From the text: Given the lack of adverse reactions in vivo, we next sought to test α-NETA for in vivo efficacy in the EAE model of MS.
The mice were then euthanized and vital organs weighed. Each symbol represents an individual mouse, and the bars indicate mean ± SEM, n = 3 mice per group. […] Control mice received either captisol vehicle or no treatment. […] For days 1–15, n = 52 mice per group; for days 16–27, n = 24–25 mice per group. * p<0.05 by Mann-Whitney U test.

C57BL/6 mice [2] = assay: EAE induced by adoptive transfer of MOG-reactive lymphocytes in C57BL/6 mice; type: in vivo, mouse
CCRL2 KO mice = assay: EAE induced by active immunization in CCRL2 KO mice; type: in vivo, mouse
[3] = within 5 min; depending on the temperature of incubation
[4] = mouse
[5] = molecular target: Aldehyde dehydrogenase 1 family, member A1 (ALDH1A1); design: method as in PubChem, 2014b; ref 22; details: Purified enzyme; ref PubChem, 2014b; cited from earlier work
[6] = tested on: Nuclear factor of activated T cells (NFAT); design: method as in PubChem, 2014a; details: Cell-based; ref PubChem, 2014a; cited from earlier work
Vitamin D receptor = molecular target: Vitamin D receptor; design: method as in PubChem, 2014a; details: Purified protein (binding); ref PubChem, 2014a; cited from earlier work
p53 mutants = tested on: p53 mutants; design: method as in PubChem, 2014a; details: Cell-based (process); ref PubChem, 2014a; cited from earlier work
[7] = molecular target: 15-Hydroxyprostaglandin dehydrogenase; design: method as in PubChem, 2014b; details: Purified enzyme; ref PubChem, 2014b; cited from earlier work
Acetylcholinesterase = molecular target: Acetylcholinesterase; design: method as in Sastry et al., 1988a; ref 19; details: Purified enzyme; ref Sastry et al., 1988a; cited from earlier work
[8] = tested on: Acetylcholine muscarinic M1 receptor; design: method as in PubChem, 2014a; ref 25; details: Cell-based (GPCR); Tested up to 35 µM; ref PubChem, 2014a; cited from earlier work
Cytochrome p450 2C19 = details: cited from earlier work
huCMKLR1 = molecular target: T1, huCMKLR1 (Homo sapiens, UniProt Q99788); assay: β-arrestin2 (β-ARR2) enzymatic complementation assay, CMKLR1/CHO cells; type: cell-based; design: host or cells: CHO
T1 sequence (Q99788 1-373): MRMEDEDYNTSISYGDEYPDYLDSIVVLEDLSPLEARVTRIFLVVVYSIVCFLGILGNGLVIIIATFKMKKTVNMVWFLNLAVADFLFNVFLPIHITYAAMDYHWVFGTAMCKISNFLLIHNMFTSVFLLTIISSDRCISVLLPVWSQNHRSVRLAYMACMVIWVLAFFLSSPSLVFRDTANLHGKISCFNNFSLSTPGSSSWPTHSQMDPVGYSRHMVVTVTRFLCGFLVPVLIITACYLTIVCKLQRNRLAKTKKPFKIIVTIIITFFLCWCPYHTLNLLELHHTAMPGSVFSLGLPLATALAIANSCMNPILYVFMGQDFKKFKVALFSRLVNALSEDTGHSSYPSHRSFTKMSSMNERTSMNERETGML
From the text: The engagement of a chemoattractant receptor by its cognate ligand stimulates the recruitment of β-arrestin to the carboxyl-terminus of the receptor, an event that results in receptor internalization and termination of G protein-mediated signaling. […] To test this, we used an enzymatic complementation assay (the β-ARR2 assay), whereby the complementary fragments from the β-gal active site are fused to the carboxyl-terminus of CMKLR1 and β-arrestin2. The special association of these molecules leads to enzyme activity, which is detected by a chemiluminescent substrate.

CCR9 = CCR9 (Homo sapiens, UniProt P51686); assay: Transwell chemotaxis of CCR9+ MOLT-4 cells to CCL25
CXCR7 = CXCR7 (Homo sapiens, UniProt P25106); assay: β-arrestin2 (β-ARR2) assay, CXCR7/CHO cells, CXCL12-stimulated; details: 3 µM
C57BL/6 mice [9] = assay: Recall proliferation and cytokine (ELISA) responses of LN and spleen cells from treated MOG35-55/CFA-immunized mice; details: in vivo treatment over a 10-day period; 72 h restimulation

Chain of CCR9 (P51686 whole entry): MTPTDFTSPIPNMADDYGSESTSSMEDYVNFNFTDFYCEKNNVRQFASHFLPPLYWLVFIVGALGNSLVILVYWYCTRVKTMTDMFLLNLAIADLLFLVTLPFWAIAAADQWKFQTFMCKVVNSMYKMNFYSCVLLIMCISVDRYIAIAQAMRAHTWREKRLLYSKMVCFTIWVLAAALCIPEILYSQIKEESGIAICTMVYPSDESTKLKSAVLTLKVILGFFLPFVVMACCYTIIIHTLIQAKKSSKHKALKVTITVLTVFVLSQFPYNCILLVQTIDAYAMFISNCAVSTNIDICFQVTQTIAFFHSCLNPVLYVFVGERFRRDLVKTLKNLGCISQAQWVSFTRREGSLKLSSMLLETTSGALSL
Chain of CXCR7 (P25106 whole entry, species assumed): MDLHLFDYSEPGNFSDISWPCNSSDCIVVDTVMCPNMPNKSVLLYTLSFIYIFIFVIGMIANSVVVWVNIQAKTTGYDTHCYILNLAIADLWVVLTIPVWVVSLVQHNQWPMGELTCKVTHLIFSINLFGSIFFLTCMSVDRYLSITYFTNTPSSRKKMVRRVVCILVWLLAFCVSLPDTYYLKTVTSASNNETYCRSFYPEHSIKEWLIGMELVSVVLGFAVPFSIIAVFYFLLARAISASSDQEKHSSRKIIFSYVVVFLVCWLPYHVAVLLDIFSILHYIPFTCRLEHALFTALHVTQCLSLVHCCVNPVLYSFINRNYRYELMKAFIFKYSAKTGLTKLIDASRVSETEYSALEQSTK

C[N+](C)(C)CCC(=O)c1cccc2ccccc12.[I-] [α-NETA, 2-(α-naphthoyl)ethyltrimethylammonium iodide]
in vivo tolerability (survival, weight gain, appearance, behavior, organ wet weight) (C57BL/6 mice [1]): well tolerated
suppression of clinical signs beyond first appearance of disease in control mice (C57BL/6 mice [2]; 10 mg/kg daily s.c.): completely suppressed clinical signs for an average of six days
severity of clinical disease (C57BL/6 mice [2]; 10 mg/kg daily s.c., day 15–19): significantly reduced
reduction of the incidence of EAE by day 24 (C57BL/6 mice [2]; 10 mg/kg daily s.c., did not reach statistical significance): ~25%
ability of MOG-reactive lymphocytes from treated donor mice to induce EAE by passive transfer (C57BL/6 mice [2]; donor mice treated once daily for ten days): fully capable of inducing EAE by passive transfer
suppression of clinical signs beyond first appearance of disease in control CCRL2 KO mice (CCRL2 KO mice; 10 mg/kg daily s.c.): completely and significantly suppressed clinical signs for an average of four days
treated mice that did not develop EAE by day 20 (CCRL2 KO mice; CCRL2 KO mice, 10 mg/kg daily s.c.): 40%
severity of clinical disease (CCRL2 KO mice; CCRL2 KO mice, days 8-15 (except for day 10)): significantly reduced
parent compound no longer detectable by mass spectrometry after dissolution in 10% captisol [3]: 40–60%
detection of parent compound after in vivo dosing ([4]; iv, 0.5 mg/kg): unable to detect any of the parent compound
detection of parent compound after in vivo dosing ([4]; sc, 10 mg/kg): unable to detect any of the parent compound
IC50 [5]: 0.04 µM
IC50 [6]: 1.3 µM
IC50 (Vitamin D receptor): 2 µM
IC50 (p53 mutants): 13 µM
IC50 [7]: 14 µM
IC50 (Acetylcholinesterase): 300 µM
IC50 (µM), Acetylcholine muscarinic M1 receptor [8]: Inactive ^k
IC50 (Cytochrome p450 2C19): ≥ 10000 nM
IC50 (µM), Cytochrome p450 2C19 (Cytochrome p450 2C19): Inactive ^j
IC50 (huCMKLR1): 0.375 ± 0.042 µM
IC50 (huCMKLR1; IC50 (µM), β-arrestin, huCMKLR1, mean±SEM, n = 3-14 independent experiments): 0.38 µM
IC50 (CCR9): ≥ 10000 nM
inhibition of migration of CCR9+ MOLT4 cells to CCL25 (CCR9; 1, 3, and 10 µM): did not inhibit
inhibition of CXCL12-triggered β-arrestin2 association with CXCR7 (CXCR7): moderately inhibited
MOG35-55 recall proliferation and IFNγ and IL-17 production of LN and spleen cells (C57BL/6 mice [9]): comparable to vehicle-treated mice

— publication PMC4249827, “A Novel CMKLR1 Small Molecule Antagonist Suppresses CNS Autoimmune Inflammatory Disease” (PLoS ONE, 2014)
